Consider 18 compounds from patent US20260053834A1, “COVALENT MODIFIERS OF AKT1 AND USES THEREOF” (Terremoto Biosciences, Inc., priority 2023, published 2026).

The structures appear in SMILES notation.

One assay concerns the target T1, AKT1 E17K (Homo sapiens, UniProt P31749, E17K).
T1 construct: expressed in transfected cells; host or cells: HEK293
The assay is described as follows: Live cell target engagement by NanoBRET competitive probe displacement, AKT1 E17K. The format is binding. The note with it: transfected HEK293 cells, 2 h at 37° C., read-out: AKT1 E17K IC50: GeoMean IC50.

Assay [1] deals with LAPC4 prostate cancer cells, which express the AKT1 E17K allele. The assay is described as follows: Antiproliferative effects in LAPC4 cells (CellTiter Glo, 72 h). Type of assay: cell-based. Conditions: Homo sapiens, LAPC4, 72 h, read-out: LAPC4 proliferation IC50: GeoMean IC50. The gist of the method:
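Cells grown in IMDM with 12% FBS, seeded at 1,000 cells/well and treated with compound dilutions in DMSO for 72 h. Intracellular ATP read by luminescence. IC50 from a log(inhibitor) vs. response Hill fit.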

For another assay, the target named is T2, AKT2 (Homo sapiens, UniProt P31751).
T2 construct: expressed in transfected cells; host or cells: HEK293
The assay is described as follows: Live cell target engagement by NanoBRET competitive probe displacement, AKT2. The format is binding. The note with it: transfected HEK293 cells, 2 h at 37° C., read-out: AKT2 IC50: GeoMean IC50.

The target in the next assay is T3, AKT1 WT (Homo sapiens, UniProt P31749).
T3 construct: expressed in transfected cells; host or cells: HEK293
The assay is described as follows: Live cell target engagement by NanoBRET competitive probe displacement, AKT1 WT. The format is binding. The note with it: transfected HEK293 cells, 2 h at 37° C., read-out: AKT1 WT IC50: GeoMean IC50.

T1 sequence (P31749 whole entry E17K): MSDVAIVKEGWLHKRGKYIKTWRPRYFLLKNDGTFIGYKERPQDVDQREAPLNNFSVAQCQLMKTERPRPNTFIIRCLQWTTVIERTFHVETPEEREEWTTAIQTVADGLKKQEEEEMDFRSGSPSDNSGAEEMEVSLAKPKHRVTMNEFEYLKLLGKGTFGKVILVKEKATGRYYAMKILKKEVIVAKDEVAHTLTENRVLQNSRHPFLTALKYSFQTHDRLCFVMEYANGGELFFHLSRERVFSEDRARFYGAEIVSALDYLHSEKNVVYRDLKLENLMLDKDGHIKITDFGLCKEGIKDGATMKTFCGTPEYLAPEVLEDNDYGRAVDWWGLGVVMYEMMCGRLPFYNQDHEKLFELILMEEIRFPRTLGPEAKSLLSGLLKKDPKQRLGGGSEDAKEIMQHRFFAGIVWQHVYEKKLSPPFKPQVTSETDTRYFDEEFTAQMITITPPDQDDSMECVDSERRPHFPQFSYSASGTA
T3 sequence (P31749 whole entry): as the sequence (P31749 whole entry E17K) above, with K17E counted along it
T2 sequence (P31751 whole entry): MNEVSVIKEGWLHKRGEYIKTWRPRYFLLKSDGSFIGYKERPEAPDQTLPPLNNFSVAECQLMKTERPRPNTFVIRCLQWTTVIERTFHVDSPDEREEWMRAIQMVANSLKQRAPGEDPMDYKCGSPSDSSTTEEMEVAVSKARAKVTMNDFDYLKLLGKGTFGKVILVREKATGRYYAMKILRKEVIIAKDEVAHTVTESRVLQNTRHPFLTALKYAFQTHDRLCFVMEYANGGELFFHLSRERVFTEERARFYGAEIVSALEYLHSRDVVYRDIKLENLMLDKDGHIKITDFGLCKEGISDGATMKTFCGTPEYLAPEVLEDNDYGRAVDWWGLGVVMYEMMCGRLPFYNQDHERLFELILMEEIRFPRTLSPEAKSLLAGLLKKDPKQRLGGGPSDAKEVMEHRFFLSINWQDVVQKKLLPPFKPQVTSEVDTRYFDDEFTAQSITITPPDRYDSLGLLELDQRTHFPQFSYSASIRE

In the case of `Nc1ncccc1-c1nc2ccc(-c3cnn(C(F)F)c3)nc2n1-c1ccc2c(c1)CC[C@@H]2NC(=O)c1ccc(O)c(C=O)c1` [Example 61, N-[(1S)-5-[2-(2-aminopyridin-3-yl)-5-[1-(difluoromethyl)pyrazol-4-yl]imidazo[4,5-b]pyridin-3-yl]-2,3-dihydro-1H-inden-1-yl]-3-formyl-4-hydroxybenzamide], the IC50 at AKT1 E17K lay in the range of 0.01 to 0.1 µM; in assay [1], 0.01 to 0.1 µM; at AKT2, 0.1 to 2 µM; at AKT1 WT, 0.01 to 0.1 µM.
In the case of `Nc1ncccc1-c1nc2ccc(-c3cnn(C4CC4)c3)nc2n1-c1ccc2c(c1)CC[C@@H]2NC(=O)c1ccc(O)c(C=O)c1` [Example 62, N-[(1S)-5-[2-(2-aminopyridin-3-yl)-5-(1-cyclopropylpyrazol-4-yl)imidazo[4,5-b]pyridin-3-yl]-2,3-dihydro-1H-inden-1-yl]-3-formyl-4-hydroxybenzamide], the IC50 on AKT1 E17K is 0.01 to 0.1 µM; in assay [1], 0.1 to 2 µM; at AKT2, 0.1 to 2 µM; at AKT1 WT, 0.01 to 0.1 µM.
With `CN(C)C(=O)Nc1ccc(C(=O)N[C@H]2CCc3cc(-n4c(-c5cccnc5N)nc5ccc(-c6ccccc6)nc54)ccc32)cc1C=O` [Example 63, (S)—N-(5-(2-(2-aminopyridin-3-yl)-5-phenyl-3H-imidazo[4,5-b]pyridin-3-yl)-2,3-dihydro-1H-inden-1-yl)-4-(3,3-dimethylureido)-3-formylbenzamide], the IC50 at AKT1 E17K was less than 0.01 µM; in assay [1], less than 0.01 µM; on AKT2, 0.01 to 0.1 µM; on AKT1 WT, less than 0.01 µM.
In the case of `CC(=O)Nc1c(F)cc(C(=O)N[C@H]2CCc3cc(-n4c(-c5cccnc5N)nc5ccc(-c6ccccc6)nc54)ccc32)cc1C=O` [Example 64, N-[(1S)-5-[2-(2-aminopyridin-3-yl)-5-phenylimidazo[4,5-b]pyridin-3-yl]-2,3-dihydro-1H-inden-1-yl]-4-acetamido-3-fluoro-5-formylbenzamide], the IC50 (at AKT1 E17K; in assay [1]; on AKT2; at AKT1 WT) was 0.01 to 0.1 µM each time.
On to `Nc1ncccc1-c1nc2ccc(-n3cccn3)nc2n1-c1ccc2c(c1)CC[C@@H]2NC(=O)c1cc(C=O)c2[nH]ncc2c1` [Example 66, N-[(1S)-5-[2-(2-aminopyridin-3-yl)-5-(pyrazol-1-yl)imidazo[4,5-b]pyridin-3-yl]-2,3-dihydro-1H-inden-1-yl]-7-formyl-1H-indazole-5-carboxamide], for which the IC50 was less than 0.01 µM at AKT1 E17K, 0.01 to 0.1 µM in assay [1], 0.1 to 2 µM on AKT2 and 0.01 to 0.1 µM on AKT1 WT.
Consider `Nc1ncccc1-c1nc2ccc(-c3cn[nH]c3)nc2n1-c1ccc2c(c1)CC[C@@H]2NC(=O)c1ccc(O)c(C=O)c1` [Example 67, N-[(1S)-5-[2-(2-aminopyridin-3-yl)-5-(1H-pyrazol-4-yl)imidazo[4,5-b]pyridin-3-yl]-2,3-dihydro-1H-inden-1-yl]-3-formyl-4-hydroxybenzamide], for which the IC50 (on AKT1 E17K; in assay [1]; on AKT2; at AKT1 WT) was 0.1 to 2 µM each time.
On to `Nc1ncccc1-c1nc2ccc(-c3ccccc3)nc2n1-c1ccc2c(c1)CC[C@@H]2NC(=O)c1ccc(NC(=O)N2CCOCC2)c(C=O)c1` [Example 68, N-(4-{[(1S)-5-[2-(2-aminopyridin-3-yl)-5-phenylimidazo[4,5-b]pyridin-3-yl]-2,3-dihydro-1H-inden-1-yl]carbamoyl}-2-formylphenyl)morpholine-4-carboxamide], for which the IC50 on AKT1 E17K was 0.01 to 0.1 µM; in assay [1] it was 0.1 to 2 µM; on AKT2, 0.1 to 2 µM; on AKT1 WT, 0.01 to 0.1 µM.
Regarding `Cc1cc(C)c2nc(-c3cccnc3N)n(-c3ccc4c(c3)CC[C@@H]4NC(=O)c3ccc(O)c(C=O)c3)c2n1` [Example 69, N-[(1S)-5-[2-(2-aminopyridin-3-yl)-5,7-dimethylimidazo[4,5-b]pyridin-3-yl]-2,3-dihydro-1H-inden-1-yl]-3-formyl-4-hydroxybenzamide], the IC50 at AKT1 E17K is 0.01 to 0.1 µM; in assay [1] it was 0.1 to 2 µM; on AKT2, not below 2 µM; on AKT1 WT, 0.1 to 2 µM.
Take `Nc1ncccc1-c1nc2ccc(-c3cnccn3)nc2n1-c1ccc2c(c1)CC[C@@H]2NC(=O)c1cc(F)c(O)c(C=O)c1` [Example 70, (S)—N-(5-(2-(2-aminopyridin-3-yl)-5-(pyrazin-2-yl)-3H-imidazo[4,5-b]pyridin-3-yl)-2,3-dihydro-1H-inden-1-yl)-3-fluoro-5-formyl-4-hydroxybenzamide]: the IC50 lay within 0.01 to 0.1 µM on AKT1 E17K, 0.1 to 2 µM in assay [1], 0.1 to 2 µM on AKT2 and 0.01 to 0.1 µM on AKT1 WT.
On to `COc1cnc(-c2ccc3nc(-c4cccnc4N)n(-c4ccc5c(c4)CC[C@@H]5NC(=O)c4ccc(O)c(C=O)c4)c3n2)cn1` [Example 71, (S)—N-(5-(2-(2-aminopyridin-3-yl)-5-(5-methoxypyrazin-2-yl)-3H-imidazo[4,5-b]pyridin-3-yl)-2,3-dihydro-1H-inden-1-yl)-3-formyl-4-hydroxybenzamide], for which the IC50 was in the range of 0.01 to 0.1 µM on AKT1 E17K, 0.01 to 0.1 µM in assay [1], 0.1 to 2 µM on AKT2 and 0.01 to 0.1 µM at AKT1 WT.
Regarding `Cn1cc(-c2ccc3nc(-c4cccnc4N)n(-c4ccc5c(c4)CC[C@@H]5NC(=O)c4ccc(O)c(C=O)c4)c3n2)nn1` [Example 72, (S)—N-(5-(2-(2-aminopyridin-3-yl)-5-(1-methyl-1H-1,2,3-triazol-4-yl)-3H-imidazo[4,5-b]pyridin-3-yl)-2,3-dihydro-1H-inden-1-yl)-3-formyl-4-hydroxybenzamide], the IC50 on AKT1 E17K was in the range of 0.01 to 0.1 µM; in assay [1] it was 0.1 to 2 µM; at AKT2, 0.1 to 2 µM; on AKT1 WT it was 0.01 to 0.1 µM.
In the case of `Nc1ncccc1-c1nc2ccc(-c3cnccn3)nc2n1-c1ccc2c(c1)CC[C@@H]2NC(=O)c1cc(C=O)c2[nH]ncc2c1` [Example 73, (S)—N-(5-(2-(2-aminopyridin-3-yl)-5-(pyrazin-2-yl)-3H-imidazo[4,5-b]pyridin-3-yl)-2,3-dihydro-1H-inden-1-yl)-7-formyl-1H-indazole-5-carboxamide], the IC50 was less than 0.01 µM on AKT1 E17K, 0.01 to 0.1 µM in assay [1], 0.1 to 2 µM at AKT2 and 0.01 to 0.1 µM at AKT1 WT.
Consider `Nc1ncccc1-c1nc2ccc(-c3ccccc3)nc2n1-c1ccc2c(c1)C(=O)C[C@@H]2NC(=O)c1ccc(O)c(C=O)c1` [Example 74, N-[(1S)-5-[2-(2-aminopyridin-3-yl)-5-phenylimidazo[4,5-b]pyridin-3-yl]-3-oxo-1,2-dihydroinden-1-yl]-3-formyl-4-hydroxybenzamide], for which the IC50 on AKT1 E17K lay in the range of 0.01 to 0.1 µM; in assay [1] it was 0.1 to 2 µM; at AKT2, 0.1 to 2 µM; on AKT1 WT it was 0.1 to 2 µM.
As to `Nc1ncccc1-c1nc2ccc(-n3ccc(F)n3)nc2n1-c1ccc2c(c1)CC[C@@H]2NC(=O)c1ccc(O)c(C=O)c1` [Example 75, (S)—N-(5-(2-(2-aminopyridin-3-yl)-5-(3-fluoro-1H-pyrazol-1-yl)-3H-imidazo[4,5-b]pyridin-3-yl)-2,3-dihydro-1H-inden-1-yl)-3-formyl-4-hydroxybenzamide], the IC50 at AKT1 E17K was in the range of 0.01 to 0.1 µM; in assay [1], 0.1 to 2 µM; at AKT2 it was 0.1 to 2 µM; on AKT1 WT, 0.01 to 0.1 µM.
For `Nc1ncccc1-c1nc2ccc(-n3cc(F)cn3)nc2n1-c1ccc2c(c1)CC[C@@H]2NC(=O)c1ccc(O)c(C=O)c1` [Example 76, N-[(1S)-5-[2-(2-aminopyridin-3-yl)-5-(4-fluoropyrazol-1-yl)imidazo[4,5-b]pyridin-3-yl]-2,3-dihydro-1H-inden-1-yl]-3-formyl-4-hydroxybenzamide], the IC50 on AKT1 E17K is 0.01 to 0.1 µM; in assay [1], 0.1 to 2 µM; at AKT2, 0.1 to 2 µM; at AKT1 WT, 0.1 to 2 µM.
As for `Cc1cnn(-c2ccc3nc(-c4cccnc4N)n(-c4ccc5c(c4)CC[C@@H]5NC(=O)c4ccc(O)c(C=O)c4)c3n2)c1` [Example 77, (S)—N-(5-(2-(2-aminopyridin-3-yl)-5-(4-methyl-1H-pyrazol-1-yl)-3H imidazo[4,5-b]pyridin-3-yl)-2,3-dihydro-1H-inden-1-yl)-3-formyl-4-hydroxybenzamide], the IC50 on AKT1 E17K fell in the range of 0.01 to 0.1 µM; in assay [1], 0.1 to 2 µM; on AKT2, 0.1 to 2 µM; on AKT1 WT it was 0.01 to 0.1 µM.
In the case of `Nc1ncccc1-c1nc2ccc(-n3cc(Cl)cn3)nc2n1-c1ccc2c(c1)CC[C@@H]2NC(=O)c1ccc(O)c(C=O)c1` [Example 78, N-[(1S)-5-[2-(2-aminopyridin-3-yl)-5-(4-chloropyrazol-1-yl)imidazo[4,5-b]pyridin-3-yl]-2,3-dihydro-1H-inden-1-yl]-3-formyl-4-hydroxybenzamide], the IC50 on AKT1 E17K is 0.01 to 0.1 µM; in assay [1], 0.1 to 2 µM; on AKT2 it was 0.1 to 2 µM; at AKT1 WT, 0.1 to 2 µM.
Turning to `N#Cc1ccc2nc(-c3cccnc3N)n(-c3ccc4c(c3)CC[C@@H]4NC(=O)c3ccc(O)c(C=O)c3)c2n1` [Example 79, (S)—N-(5-(2-(2-aminopyridin-3-yl)-5-cyano-3H-imidazo[4,5-b]pyridin-3-yl)-2,3-dihydro-1H-inden-1-yl)-3-formyl-4-hydroxybenzamide], the IC50 is 0.1 to 2 µM on AKT1 E17K, not below 2 µM in assay [1], not below 2 µM at AKT2 and 0.1 to 2 µM on AKT1 WT.
